# The source made the active and inactive calls. The calls are words filed in the database; no cut-off is given here.
# Key:
# Staphylococcus aureus [1] = assay: Antibacterial activity against methicillin-resistant Staphylococcus aureus by broth microdilution assay; type: functional
# Enterococcus faecalis = assay: Antibacterial activity against Enterococcus faecalis by broth microdilution assay; type: functional
# Staphylococcus aureus [2] = assay: Antibacterial activity against Staphylococcus aureus by broth microdilution assay; type: functional
# Staphylococcus aureus [3] = assay: Antibacterial activity against Staphylococcus aureus ATCC 25923 by broth microdilution assay; type: functional
# Staphylococcus aureus [4] = assay: Antibacterial activity against Staphylococcus aureus ATCC 29213 by broth microdilution assay; type: functional
# Klebsiella pneumoniae = assay: Antibacterial activity against Klebsiella pneumonia by broth microdilution assay; type: functional
# Escherichia coli [5] = assay: Antibacterial activity against Escherichia coli by broth microdilution assay; type: functional
# Escherichia coli [6] = assay: Antibacterial activity against Escherichia coli ATCC 25922 by broth microdilution assay; type: functional
# Pseudomonas aeruginosa [7] = assay: Antibacterial activity against Pseudomonas aeruginosa by broth microdilution assay; type: functional
# Pseudomonas aeruginosa [8] = assay: Antibacterial activity against Pseudomonas aeruginosa ATCC 27853 by broth microdilution assay; type: functional
# Acinetobacter baumannii = assay: Antibacterial activity against Acinetobacter baumannii by broth microdilution assay; type: functional
# Staphylococcus aureus [9] = assay: Potency index, ratio of MIC of norfloxacin to MIC of compound for antibacterial activity against methicillin-resistant Staphylococcus aureus by broth microdilution assay; type: functional
# Staphylococcus aureus [10] = assay: Antibacterial activity against methicillin-resistant Staphylococcus aureus assessed as reduction in bacterial growth measured after 16 passages; type: functional, organism-based
# Cell membrane = assay: Disruption of inner cell membrane in methicillin-resistant Staphylococcus aureus at 4 times of MIC measured within 14 mins by PI uptake assay; type: subcellular
# Calf thymus DNA [11] = assay: Binding affinity to calf thymus DNA assessed as red shift in absorption spectra upto 26.7 uM by UV-vis absorption spectroscopy; type: tissue-based; details: Bos taurus, dose microM <=26.7
# Calf thymus DNA [12] = assay: Binding affinity to calf thymus DNA assessed as reduction in fluorescence intensity of DNA-AO complex by AO dye based fluorescence analysis; details: Bos taurus
# Calf thymus DNA [13] = assay: Binding affinity to calf thymus DNA assessed as enhancement in maximum absorption of DNA upto 26.7 uM by UV-vis absorption spectroscopy; type: tissue-based; details: Bos taurus, dose microM <=26.7
# Staphylococcus aureus [14] = assay: Antibacterial activity against methicillin-resistant Staphylococcus aureus assessed as metabolic inactivation by Alamar blue assay; type: functional, organism-based
SMILES,MIC (Staphylococcus aureus [1]) [µg/mL],MIC (Enterococcus faecalis) [µg/mL],MIC (Staphylococcus aureus [2]) [µg/mL],MIC (Staphylococcus aureus [3]) [µg/mL],MIC (Staphylococcus aureus [4]) [µg/mL],MIC (Klebsiella pneumoniae) [µg/mL],MIC (Escherichia coli [5]) [µg/mL],MIC (Escherichia coli [6]) [µg/mL],MIC (Pseudomonas aeruginosa [7]) [µg/mL],MIC (Pseudomonas aeruginosa [8]) [µg/mL],MIC (Acinetobacter baumannii) [µg/mL],Ratio (Staphylococcus aureus [9]),Activity (Staphylococcus aureus [10]),Activity (Cell membrane),Activity (Calf thymus DNA [11]),Activity (Calf thymus DNA [12]),Activity (Calf thymus DNA [13]),Activity (Staphylococcus aureus [14])
C=CCSc1nnc(CS(=O)(=O)c2ccc(NC(C)=O)cc2)o1,256,64,256,256,256,256,256,256,256,256,256,,,,,,,
CC(=O)Nc1ccc(S(=O)(=O)Cc2nnc(SCc3ccc(Cl)cc3Cl)o2)cc1,2,128,64,256,32,16,16,64,64,256,32,,,,,,,
CC(=O)Nc1ccc(S(=O)(=O)Cc2nnc(SCCF)o2)cc1,2,64,64,128,32,32,32,64,64,128,64,8,,,,,,
CC(=O)CSc1nnc(CS(=O)(=O)c2ccc(NC(C)=O)cc2)o1,2,64,64,128,32,16,16,64,64,128,64,,,,,,,
CC(=O)Nc1ccc(S(=O)(=O)Cc2nnc(S)o2)cc1,256,128,256,256,256,256,256,256,256,256,256,,,,,,,
CCOC(=O)CSc1nnc(CS(=O)(=O)c2ccc(NC(C)=O)cc2)o1,16,128,128,64,64,64,32,128,64,128,32,,,,,,,
C#CCSc1nnc(CS(=O)(=O)c2ccc(NC(C)=O)cc2)o1,8,128,64,64,32,256,128,128,64,256,128,,,,,,,
CCCCCCSc1nnc(CS(=O)(=O)c2ccc(NC(C)=O)cc2)o1,1,128,256,256,256,8,256,128,256,256,32,16,Active,Active,Active,Active,Active,Active
CCN(CC)CCSc1nnc(CS(=O)(=O)c2ccc(NC(C)=O)cc2)o1,32,64,128,64,64,128,64,128,128,64,32,,,,,,,
CC(=O)Nc1ccc(S(=O)(=O)Cc2nnc(SCC(=O)O)o2)cc1,32,64,128,64,64,64,32,128,128,128,32,,,,,,,
CCn1cc(C(=O)O)c(=O)c2cc(F)c(N3CCNCC3)cc21 [NORFLOXACIN],16,8,4,8,8,16,8,8,4,8,8,,inactive,,,,,
CC(=O)Nc1ccc(S(=O)(=O)Cc2nnc(SCCO)o2)cc1,32,32,64,32,32,16,32,64,32,128,64,,,,,,,
CCCCCCCCCCCCSc1nnc(CS(=O)(=O)c2ccc(NC(C)=O)cc2)o1,128,128,256,256,256,64,256,256,256,256,256,,,,,,,
CC(=O)Nc1ccc(S(=O)(=O)Cc2nnc(SCC3CC3)o2)cc1,8,64,128,64,64,128,8,128,64,64,64,,,,,,,
CC(=O)Nc1ccc(S(=O)(=O)Cc2nnc(SCC#N)o2)cc1,256,256,128,256,256,256,256,256,256,256,128,,,,,,,
CC(=O)Nc1ccc(S(=O)(=O)Cc2nnc(SCc3ccc(F)cc3F)o2)cc1,16,128,64,64,32,128,8,128,64,64,64,,,,,,,
CCCCSc1nnc(CS(=O)(=O)c2ccc(NC(C)=O)cc2)o1,256,256,128,256,256,256,128,256,256,256,256,,,,,,,

# From ChEMBL document CHEMBL4814033, “Unique para-aminobenzenesulfonyl oxadiazoles as novel structural potential membrane active antibacterial agents towards drug-resistant methicillin resistant Staphylococcus aureus” (2021)
